In PMC12676205, “New Se‐Compounds With Antileishmanial, Antitumor, and Carbonic Anhydrase Inhibitory Properties” (Archiv Der Pharmazie, 2025):
Read-outs that look alike come from different tables or passages of the source.

Tests used:
[1] = tested on: NCI‐60 human cancer cell lines; parameters: method as in PMID 20442306; conditions: NCI-60 panel; read-out: mean GI50 in the same panel of cell lines; cited from earlier work
hCA II = target: T1, hCA II (Homo sapiens, UniProt P00918); assay: hCA II inhibition, stopped-flow CO2 hydration assay; format: biochemical; conditions: stopped flow technique, mean from three assays
T1 construct: made in house
Procedure: (§7) An Applied Photophysics stopped‐flow instrument was used to assay the CA‐catalyzed CO2 hydration activity [52]. […] The uncatalyzed rates were determined in the same manner and subtracted from the total observed rates. Stock solutions of the inhibitor (0.1 mM) were prepared in distilled–deionized water, and dilutions up to 0.01 nM were done thereafter with the assay buffer. Inhibitor and enzyme solutions were preincubated together for 15 min at room temperature before the assay, to allow for the formation of the E–I complex. The inhibition constants were obtained by Nonlinear least‐squares methods using PRISM 3 and the Cheng‐Prusoff equation as reported earlier and represent the mean from at least three different determinations. All CA isoforms were recombinant proteins obtained in‐house, as reported earlier [54, 55, 56].

Breast subpanel [2] = assay: NCI-60 five-dose assay, breast subpanel; format: cell-based; conditions: Homo sapiens, 48 h, read-out: Mean GI50 Breast
Procedure: (§1) All the compounds were selected for further testing since they fulfilled the set NCI one‐dose screening parameters for threshold inhibition. They were tested at five different concentrations (0.01, 0.1, 1, 10, and 100 μM) for 48 h against the same cell line panel and the dose–response curves along with three response parameters (50% growth inhibitory concentration [GI50], the 50% lethal concentration [LC50], and the total growth inhibition [TGI]) were calculated for every cancer cell line. The full reported data and corresponding graphs are compiled in Supporting Information S1. Average values of GI50, TGI, and LC50 values of all the reported selenoesters in all the subpanels are represented in Figure 4.
(§2) All the reported selenoesters (1–6) were submitted to the DTP of NCI. First, they were screened at a single dose (10^−5 M) against a panel of 60 cancer cell lines derived from different tumor types following the methodology available (https://dtp.cancer.gov/discovery_development/nci-60/methodology.htm). As all the compounds satisfied the threshold inhibition criteria established, they were further assessed at five concentrations (0.01, 0.1, 1, 10, and 100 µM) against the same cell panel to obtain their corresponding dose–response curves and three antitumor parameters (GI50, TGI, and LC50) by regression. GraphPad Prism 7.0 Software was used to represent the corresponding graphs.

[3] = tested on: OVCAR‐5 ovarian cancer cells; assay: NCI-60 five-dose assay, OVCAR-5; format: cell-based, human; conditions: 48 h
Procedure: as §1, §2

hCA IX = target: T2, hCA IX (Homo sapiens, UniProt Q16790); assay: biochemical; conditions: stopped flow technique, mean from three assays
T2 construct: made in house
Procedure: as §7

Melanoma subpanel [4] = assay: NCI-60 one-dose screen, melanoma subpanel; format: cell-based, human; conditions: 10 µM, 48 h
Procedure: (§3) To explore the potential antiproliferative properties of the newly synthesized derivatives, they were submitted to the National Cancer Institute's (NCI) Developmental Therapeutics Program (DTP) for screening at 10 μM in a panel of approximately 60 human cancer cell lines from different cancer types. The results are reported as the growth percentage (GP), which is the growth of the treated cells with each compound for 48 h compared to the untreated controls (Figure 2). […] The initial screening results are summarized in Figure 2, and the mean GP values of each subpanel are depicted in Figure 3. The full reports are compiled in the Supplementary Section.
as §2

L. major promastigotes [5] = assay: Leishmanicidal activity against promastigotes (MTT), L. major; format: cell-based, Leishmania major; conditions: Leishmania major, 48 h, mean ± SD, read-out: L. major IC50
Procedure: (§4) The synthesized compounds were tested for their antileishmanial activity against promastigotes of L. major and L. infantum at four concentrations (1, 10, 50, and 100 µM) for 48 h using the 3‐(4,5‐dimethylthiazol‐2‐yl)‐2,5‐diphenyltetrazolium bromide (MTT) assay. In this evaluation, the activity was expressed in IC50 (concentration inhibiting the parasite growth by 50%). […] The CC50 was defined as the concentration of selenoesters that led to a reduction in the viability of the macrophages, such that only 50% of the cells survived when compared to the control group. This cell line, derived from the blood of a human with acute monocytic leukemia, was chosen as it has been widely reported that it resembles tissue macrophages to various extents as well as supports the infection by numerous Leishmania promastigotes. The selectivity indexes (SIs) were calculated as the ratio between toxicity on macrophages (THP‐1 cells)/antileishmanial activity. The data for standard control drugs (miltefosine and paromomycin) are included for comparison purposes.
(§5) The promastigotes of L. major (clone VI, MHOM/IL/80/Friendlin) and L. infantum (BCN‐150) were grown at 26°C under continuous shaking in M199 1× medium (Sigma, USA). This media was supplemented with 10% of heat‐inactivated fetal bovine serum (FBS) (Gibco, USA), 0.0005% (w/v) hemin, 0.1 mM adenine, 25 mM HEPES (pH 7.2), 0.0001% (w/v) biotin, and 100 UI/mL penicillin and […] streptomycin (Gibco, USA).
(§6) The antileishmanial activity of the reported selenoesters was determined using the MTT assay as previously described during the logarithmic growth phase of the tested promastigotes of L. major and L. infantum. Briefly, the Leishmania parasites were seeded into 96‐well flat‐bottom plates (3 × 10^5 parasites/100 µL) and treated with four different concentrations ranging between 1 and 100 µM of each selenoester at 26°C for 48 h. Afterwards, 20 µL of MTT (5 mg/mL in PBS) was added to each well and incubated for 4 h under the same conditions. Then, 80 µL/well of DMSO was added to dissolve the resultant formazan crystals. The absorbances were determined on a Multiskan EX photometric plate reader for microplates at 540 nm. Three independent experiments performed in triplicate were carried out for each compound, and OriginPro 8.5.1 Software was used to calculate the IC50 values by fitting the data to a dose–inhibition sigmoid curve.

Colon subpanel [6] = assay: NCI-60 five-dose assay, colon subpanel; format: cell-based; conditions: Homo sapiens, 48 h
Procedure: as §1, §2

hCA I = target: T3, hCA I (Homo sapiens, UniProt P00915); assay: hCA I inhibition, stopped-flow CO2 hydration assay; format: biochemical; conditions: stopped flow technique, mean from three assays
T3 construct: made in house
T3 sequence (P00915 whole entry): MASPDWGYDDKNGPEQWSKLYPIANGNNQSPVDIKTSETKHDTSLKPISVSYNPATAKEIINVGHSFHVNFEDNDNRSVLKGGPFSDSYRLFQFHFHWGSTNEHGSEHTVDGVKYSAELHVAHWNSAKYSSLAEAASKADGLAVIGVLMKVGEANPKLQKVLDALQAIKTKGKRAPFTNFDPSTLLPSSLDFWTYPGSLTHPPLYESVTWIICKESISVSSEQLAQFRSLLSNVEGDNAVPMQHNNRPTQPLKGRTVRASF
Procedure: as §7

Prostate subpanel [7] = assay: NCI-60 five-dose assay, prostate subpanel; format: cell-based, human; conditions: Homo sapiens, 48 h
Procedure: as §1, §2

hCA XII = target: T4, hCA XII (Homo sapiens, UniProt O43570); assay: hCA XII inhibition, stopped-flow CO2 hydration assay; format: biochemical; conditions: stopped flow technique, mean from three assays
T4 construct: made in house
T4 sequence (O43570 25-354): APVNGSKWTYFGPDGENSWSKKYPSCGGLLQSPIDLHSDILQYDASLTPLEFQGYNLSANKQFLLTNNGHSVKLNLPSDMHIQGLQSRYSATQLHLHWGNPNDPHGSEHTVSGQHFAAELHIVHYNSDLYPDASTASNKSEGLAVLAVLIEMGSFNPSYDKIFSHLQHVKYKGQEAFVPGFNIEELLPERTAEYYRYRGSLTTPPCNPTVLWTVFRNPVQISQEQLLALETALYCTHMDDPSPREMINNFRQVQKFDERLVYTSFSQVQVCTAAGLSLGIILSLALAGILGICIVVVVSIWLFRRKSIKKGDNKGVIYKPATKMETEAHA
Procedure: as §7

[8] = tested on: NSCL (non‐small‐cell lung cancer) subpanel; assay: NCI-60 one-dose screen, NSCL subpanel; format: cell-based, human; conditions: 10 µM, 48 h
Procedure: as §3, §2

Renal subpanel [9] = assay: NCI-60 five-dose assay, renal subpanel; format: cell-based; conditions: Homo sapiens, 48 h, read-out: Mean GI50 Renal
Procedure: as §1, §2

Prostate subpanel [10] = assay: NCI-60 one-dose screen, prostate subpanel; format: cell-based, human; conditions: 10 µM, 48 h
Procedure: as §3, §2

Melanoma subpanel [11] = assay: NCI-60 five-dose assay, melanoma subpanel; format: cell-based; conditions: Homo sapiens, 48 h, read-out: Mean GI50 Melanoma
Procedure: as §1, §2

Leukemia subpanel [12] = assay: NCI-60 five-dose assay, leukemia subpanel; format: cell-based; conditions: Homo sapiens, 48 h
Procedure: as §1, §2

Ovarian subpanel [13] = assay: NCI-60 five-dose assay, ovarian subpanel; format: cell-based; conditions: Homo sapiens, 48 h, read-out: Mean GI50 Ovarian
Procedure: as §1, §2

Leukemia subpanel [14] = assay: NCI-60 one-dose screen, leukemia subpanel; format: cell-based, human; conditions: 10 µM, 48 h
Procedure: as §3, §2

Ovarian subpanel [15] = assay: NCI-60 one-dose screen, ovarian subpanel; format: cell-based, human; conditions: 10 µM, 48 h
Procedure: as §3, §2

[16] = tested on: NSCL (non‐small‐cell lung cancer) subpanel; assay: NCI-60 five-dose assay, NSCL subpanel; format: cell-based; conditions: Homo sapiens, 48 h, read-out: Mean GI50 NSCL
Procedure: as §1, §2

CNS subpanel [17] = assay: NCI-60 one-dose screen, CNS subpanel; format: cell-based, human; conditions: 10 µM, 48 h
Procedure: as §3, §2

CNS subpanel [18] = assay: NCI-60 five-dose assay, CNS subpanel; format: cell-based; conditions: Homo sapiens, 48 h, read-out: Mean GI50 CNS
Procedure: as §1, §2

Renal subpanel [19] = assay: NCI-60 one-dose screen, renal subpanel; format: cell-based, human; conditions: 10 µM, 48 h
Procedure: as §3, §2

[20] = tested on: L. infantum promastigotes; assay: Leishmanicidal activity against promastigotes (MTT), L. infantum; format: cell-based, Leishmania infantum; conditions: Leishmania infantum, 48 h, mean ± SD, read-out: L. infantum IC50
Procedure: as §4, §5, §6

Breast subpanel [21] = assay: NCI-60 one-dose screen, breast subpanel; format: cell-based, human; conditions: 10 µM, 48 h
Procedure: as §3, §2

Colon subpanel [22] = assay: NCI-60 one-dose screen, colon subpanel; format: cell-based, human; conditions: 10 µM, 48 h
Procedure: as §3, §2

OVCAR‐5 = assay: NCI-60 one-dose screen, OVCAR-5; format: cell-based, human; conditions: 10 µM, 48 h
Procedure: as §3, §2

L. major promastigotes [23] = tested on: L. major promastigotes; parameters: method as in PMID 37570815, PMID 36364304; conditions: reference drugs; cited from earlier work
THP‐1 cells = tested on: THP‐1 cells; parameters: method as in PMID 37570815, PMID 36364304; conditions: reference drugs; cited from earlier work
[24] = tested on: L. infantum promastigotes; parameters: method as in PMID 37570815, PMID 36364304; conditions: reference drugs; cited from earlier work

Structure (SMILES): O=c1[nH]cc(F)c(=O)[nH]1 [5‐fluorouracil]
- GI50 [1]: 18 µM

Structure (SMILES): N#Cc1ccc(NC(=O)C[Se]C(=O)c2ccco2)cc1C(F)(F)F [Compound 4, Se‐(2‐((4‐cyano‐3‐(trifluoromethyl)phenyl)amino)‐2‐oxoethyl)furan‐2‐carboselenoate]
- Ki (hCA II): 93.8 µM
- GI50 (Breast subpanel [2]): 1.72 µM
- cytotoxicity against OVCAR‐5 [3]: remarkable cytotoxicity
- Ki (hCA IX): 19 µM
- average growth cell value, Melanoma (Melanoma subpanel [4]): -56.62%
- IC50 (L. major promastigotes [5]): 26.5 ± 3.69 µM
- GI50 (Colon subpanel [6]; read-out: Mean GI50 Colon): 1.91 µM
- CC50 (Colon subpanel [6]; read-out: Mean LC50 Colon): 27.6 µM
- Ki (hCA I): > 100 µM
- GI50 (Prostate subpanel [7]; read-out: Mean GI50 Prostate): 1.65 µM
- CC50 (Prostate subpanel [7]; read-out: Mean LC50 Prostate): 53.2 µM
- Ki (hCA XII): 77.1 µM
- average growth cell value, NSCL [8]: -37.92%
- GI50 (Renal subpanel [9]): 1.92 µM
- average growth cell value, Prostate (Prostate subpanel [10]): -28.10%
- GI50 (Melanoma subpanel [11]): 1.44 µM
- GI50 (Leukemia subpanel [12]; read-out: Mean GI50 Leukemia): 1.87 µM
- CC50 (Leukemia subpanel [12]; read-out: Mean LC50 Leukemia): > 100 µM
- GI50 (Ovarian subpanel [13]): 1.94 µM
- average growth cell value, Leukemia (Leukemia subpanel [14]): 5.71%
- average growth cell value, Ovarian (Ovarian subpanel [15]): -28.29%
- GI50 [16]: 1.56 µM
- average growth cell value, CNS (CNS subpanel [17]): -60.59%
- GI50 (CNS subpanel [18]): 1.8 µM
- average growth cell value, Renal (Renal subpanel [19]): -40.11%
- IC50 [20]: 28.6 ± 2.4 µM
- average growth cell value, Breast (Breast subpanel [21]): -25.05%
- average growth cell value, Colon (Colon subpanel [22]): -19.82%
- behaviour in OVCAR‐5 (OVCAR‐5): cytotoxic activity

Structure (SMILES): CCCCCCCCCCCCCCCCOP(=O)([O-])OCC[N+](C)(C)C [Miltefosine, miltefosine]
- IC50 (L. major promastigotes [23]): 66.6 ± 11.6 µM
- CC50 (THP‐1 cells): 13.3 ± 2.8 µM
- IC50 [24]: 31.9 ± 2.3 µM

Structure (SMILES): NC[C@@H]1O[C@H](O[C@H]2[C@@H](O)[C@H](O[C@@H]3[C@@H](O)[C@H](N)C[C@H](N)[C@H]3O[C@H]3O[C@H](CO)[C@@H](O)[C@H](O)[C@H]3N)O[C@@H]2CO)[C@H](N)[C@@H](O)[C@@H]1O [Paromomycin, paromomycin]
- IC50 (L. major promastigotes [23]): 71 ± 3.3 µM
- CC50 (THP‐1 cells): 39 ± 13.7 µM
- IC50 [24]: 18 ± 1 µM

Structure (SMILES): COc1cc2ncnc(Nc3ccc(F)c(Cl)c3)c2cc1OCCCN1CCOCC1 [gefitinib]
- GI50 [1]: 3.2 µM

Structure (SMILES): O=C1[O][Pt]2([NH][C@@H]3CCCC[C@H]3[NH]2)[O]C1=O [oxaliplatin]
- GI50 [1]: 2.8 µM
